Measured values reported in patent US9833497B2, “Human originated EGF domain proteins and use of the same” (CHENGDU SOURCEBIO LIMITED-LIABILITY COMPANY, priority 2013, dated 2017).

Legend:
Format in all cases: cell-based
E. coli DH5α = assay: Antibacterial activity: MIC and growth curve against E. coli DH5α in 96-well plate; settings: minimal inhibitory concentration against E. coli DH5α; 96-well plate, 5×10^5 CFU/mL, 37° C., judged after 8 h
In short: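 Log-phase DH5α (OD600 about 0.5, 37° C, 185 rpm in LB) was pelleted, resuspended in fresh LB and seeded at 5×10^5 CFU/mL with recombinant protein at 50, 25 and 12.5 μg/mL (two-fold series), in triplicate. Plates were shaken at 175 rpm, 37° C, and OD600 was read every 30 min. MIC was the lowest concentration with no growth.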

E. coli BL21 = assay: MIC against Gram-negative bacteria: E. coli BL21; settings: for MIC against E. coli BL21 / MIC (μg/mL) E. coli BL21: 5×10^5 CFU/mL
In short: (§1)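 Growth inhibition by human EGF domain proteins was scored in LB liquid culture seeded at 5×10^5 CFU/mL. Protein was applied as a two-fold dilution series in triplicate, with shaking incubation at 37° C; MIC is the lowest concentration giving no growth.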

Pseudomonas aeruginosa = assay: MIC against Gram-negative bacteria: Pseudomonas aeruginosa; settings: for MIC against P. aeruginosa / MIC (μg/mL) P. aeruginosa: 5×10^5 CFU/mL
In short: as §1

Klebsiella pneumonia = assay: MIC against Gram-negative bacteria: Klebsiella pneumonia; settings: for MIC against K. pneumonia / MIC (μg/mL) K. pneumonia: 5×10^5 CFU/mL
In short: as §1

Enterobacter cloacae = assay: MIC against Gram-negative bacteria: Enterobacter cloacae; settings: for MIC against E. cloacae / MIC (μg/mL) E. cloacae: 5×10^5 CFU/mL
In short: as §1

Aeromonas hydrophila = assay: MIC against Gram-negative bacteria: Aeromonas hydrophila; settings: for MIC against A. hydrophila / MIC (μg/mL) A. hydrophila: 5×10^5 CFU/mL
In short: as §1

Citrobacter diversus = assay: MIC against Gram-negative bacteria: Citrobacter diversus; settings: for MIC against C. diversus / MIC (μg/mL) C. diversus: 5×10^5 CFU/mL
In short: as §1

Moraxella catarrhalis = assay: MIC against Gram-negative bacteria: Moraxella catarrhalis; settings: for MIC against M. catarrhalis / MIC (μg/mL) M. catarrhalis: 5×10^5 CFU/mL
In short: as §1

Proteus mirabilis = assay: MIC against Gram-negative bacteria: Proteus mirabilis; settings: for MIC against P. mirabilis / MIC (μg/mL) P. mirabilis: 5×10^5 CFU/mL
In short: as §1

Proteus vulgaris = assay: MIC against Gram-negative bacteria: Proteus vulgaris; settings: for MIC against P. vulgaris / MIC (μg/mL) P. vulgaris: 5×10^5 CFU/mL
In short: as §1

Serratia marcescens = assay: MIC against Gram-negative bacteria: Serratia marcescens; settings: for MIC against S. marcescens / MIC (μg/mL) S. marcescens: 5×10^5 CFU/mL
In short: as §1

[1] = E. coli BL21, 10 h cultivation at 37° C.
[2] = P. aeruginosa, 10 h cultivation at 37° C.
[3] = K. pneumonia, 10 h cultivation at 37° C.
[4] = E. cloacae, 10 h cultivation at 37° C.
[5] = A. hydrophila, 10 h cultivation at 37° C.
[6] = C. diversus, 10 h cultivation at 37° C.
[7] = M. catarrhalis, 10 h cultivation at 37° C.
[8] = P. mirabilis, 10 h cultivation at 37° C.
[9] = P. vulgaris, 10 h cultivation at 37° C.
[10] = S. marcescens, 10 h cultivation at 37° C.

Substance	MIC (E. coli DH5α)	MIC against E. coli BL21 (E. coli BL21; 96-well plate, 37° C., 10 h)	MIC against P. aeruginosa (Pseudomonas aeruginosa; 96-well plate, 37° C., 10 h)	MIC against K. pneumonia (Klebsiella pneumonia; 96-well plate, 37° C., 10 h)	MIC against E. cloacae (Enterobacter cloacae; 96-well plate, 37° C., 10 h)	MIC against A. hydrophila (Aeromonas hydrophila; 96-well plate, 37° C., 10 h)	MIC against C. diversus (Citrobacter diversus; 96-well plate, 37° C., 10 h)	MIC against M. catarrhalis (Moraxella catarrhalis; 96-well plate, 37° C., 10 h)	MIC against P. mirabilis (Proteus mirabilis; 96-well plate, 37° C., 10 h)	MIC against P. vulgaris (Proteus vulgaris; 96-well plate, 37° C., 10 h)	MIC against S. marcescens (Serratia marcescens; 96-well plate, 37° C., 10 h)	MIC (μg/mL) E. coli BL21 (E. coli BL21; [1])	MIC (μg/mL) P. aeruginosa (Pseudomonas aeruginosa; [2])	MIC (μg/mL) K. pneumonia (Klebsiella pneumonia; [3])	MIC (μg/mL) E. cloacae (Enterobacter cloacae; [4])	MIC (μg/mL) A. hydrophila (Aeromonas hydrophila; [5])	MIC (μg/mL) C. diversus (Citrobacter diversus; [6])	MIC (μg/mL) M. catarrhalis (Moraxella catarrhalis; [7])	MIC (μg/mL) P. mirabilis (Proteus mirabilis; [8])	MIC (μg/mL) P. vulgaris (Proteus vulgaris; [9])	further results
PRT467 (ECPGGCRNGGFCNERRICECPDGFHGPHCE; listed as Homo sapiens)	12.5 µg/mL	12.5 µg/mL	12.5 µg/mL	25 µg/mL	12.5 µg/mL	25 µg/mL	50 µg/mL	25 µg/mL	12.5 µg/mL	25 µg/mL	50 µg/mL										
PRT871 (CYCNPLGSIHDRCNGSGFCECKTGTTGPKCDECLPGNSWHYGCQPNVCDN; listed as Homo sapiens)	12.5 µg/mL											25 µg/mL	50 µg/mL	12.5 µg/mL	12.5 µg/mL	12.5 µg/mL	12.5 µg/mL	25 µg/mL	12.5 µg/mL	50 µg/mL	MIC (μg/mL) S. marcescens (Serratia marcescens; [10]): 12.5 µg/mL
PRT745 (RQHPCAQDNGGCSHICLVKGDGTTRCSCPMHLVLLQDELSCG; listed as Homo sapiens)	50 µg/mL											25 µg/mL	50 µg/mL	12.5 µg/mL	50 µg/mL	12.5 µg/mL	50 µg/mL	12.5 µg/mL	25 µg/mL	50 µg/mL	MIC (μg/mL) S. marcescens (Serratia marcescens; [10]): 25 µg/mL
PRT537 (CDCNGNSNECLDGSGYCVHCQRNTTGEHCEKCLDGYIGDSIRGAPQFCQP; listed as Homo sapiens)	50 µg/mL	25 µg/mL	12.5 µg/mL	25 µg/mL	50 µg/mL	25 µg/mL	12.5 µg/mL	25 µg/mL	12.5 µg/mL	25 µg/mL	12.5 µg/mL										
PRT461 (DVDECAWDAHLCREGQRCVNLLGSYRCLPDCGPGFRVADGAGCE; listed as Homo sapiens)	50 µg/mL	12.5 µg/mL	50 µg/mL	12.5 µg/mL	50 µg/mL	12.5 µg/mL	50 µg/mL	25 µg/mL	12.5 µg/mL	25 µg/mL	12.5 µg/mL										
PRT920 (DVDECQLMPNACQNGGTCHNTHGGYNCVCVNGWTGEDCS; listed as Homo sapiens)	12.5 µg/mL																				MIC (E. coli BL21; [1]): 25 µg/mL; MIC (Pseudomonas aeruginosa; [2]): 25 µg/mL; MIC (Klebsiella pneumonia; [3]): 50 µg/mL; MIC (Enterobacter cloacae; [4]): 12.5 µg/mL; MIC (Aeromonas hydrophila; [5]): 25 µg/mL; MIC (Citrobacter diversus; [6]): 50 µg/mL; MIC (Moraxella catarrhalis; [7]): 12.5 µg/mL; MIC (Proteus mirabilis; [8]): 50 µg/mL; MIC (Proteus vulgaris; [9]): 12.5 µg/mL; MIC (Serratia marcescens; [10]): 50 µg/mL
PRT260 (CRAGNGGCHGLATCRAVGGGQRVCTCPPGFGGDGFSC; listed as Homo sapiens)	12.5 µg/mL											25 µg/mL	50 µg/mL	25 µg/mL	12.5 µg/mL	25 µg/mL	50 µg/mL	25 µg/mL	12.5 µg/mL	12.5 µg/mL	MIC (μg/mL) S. marcescens (Serratia marcescens; [10]): 12.5 µg/mL
PRT494 (CNCSLVGSTHHRCDVVTGHCQCKSKFGGRACDQCSLGYRDFPDCVP; listed as Homo sapiens)	50 µg/mL	25 µg/mL	12.5 µg/mL	25 µg/mL	50 µg/mL	25 µg/mL	12.5 µg/mL	25 µg/mL	50 µg/mL	25 µg/mL	12.5 µg/mL										
PRT1388 (RDSCPVLCGGNGEYEKGHCVCRHGWKGPECDV; listed as Homo sapiens)	100 µg/mL																				MIC against E. coli BL21 (E. coli BL21; [1]): 12.5 µg/mL; MIC against P. aeruginosa (Pseudomonas aeruginosa; Pseudomonas aeruginosa, 10 h cultivation at 37° C.): 12.5 µg/mL; MIC against K. pneumonia (Klebsiella pneumonia; Klebsiella pneumonia, 10 h cultivation at 37° C.): 12.5 µg/mL; MIC against E. cloacae (Enterobacter cloacae; Enterobacter cloacae, 10 h cultivation at 37° C.): 12.5 µg/mL; MIC against A. hydrophila (Aeromonas hydrophila; Aeromonas hydrophila, 10 h cultivation at 37° C.): 25 µg/mL; MIC against C. diversus (Citrobacter diversus; Citrobacter diversus, 10 h cultivation at 37° C.): 12.5 µg/mL; MIC against M. catarrhalis (Moraxella catarrhalis; Moraxella catarrhalis, 10 h cultivation at 37° C.): 25 µg/mL; MIC against P. mirabilis (Proteus mirabilis; Proteus mirabilis, 10 h cultivation at 37° C.): 12.5 µg/mL; MIC against P. vulgaris (Proteus vulgaris; Proteus vulgaris, 10 h cultivation at 37° C.): 12.5 µg/mL; MIC against S. marcescens (Serratia marcescens; Serratia marcescens, 10 h cultivation at 37° C.): 12.5 µg/mL
